System: pupil
Test: Pupil dilation measured with Neuroptics pupillometer after α-2 agonist pre-treatment and/or phenylephrine
Assay type: in vivo, human
Details: for CH LPupil Ave / CH Left / CLAT LPupil Ave / CLAT Left / DELTA Left / DV Left / MCV Left / Max Left / Min Left: left eye not pre-treated
Method: Dilation medication used was Phenylephrine hydrochloride 10% (Akorn, Inc). Pupillometer used was a Neuroptics DP-2000 Binocular Pupillometer).
Dilation using phenylephrine hydrochloride 10% was conducted in both eyes of the test subject to use as a control against the other compounds being tested.
After this, dilation using phenylephrine hydrochloride 2.5% or phenylephrine hydrochloride 10% was conducted to investigate the effects of the compound on pupil dilation.
Apracionidine 0.5% was administered in the right eye of the test subject three (3) times a day for 4 days. After this, dilation using phenylephrine hydrochloride 10% was conducted to investigate the effects of the compound on pupil dilation.
After this, dilation using phenylephrine hydrochloride 10% was conducted to investigate the effects of the compound on pupil dilation.
A washout period of multiple months was undertaken in between each experiment.
Pupil measurements were obtained using a Neuroptics pupillometer. Parameters were as follows: Scotopic conditions for 1 second, followed by photopic conditions for 4 seconds (1258.925 lux), followed by scotopic conditions for 10 seconds. This allowed for investigation of scotopic pupil size, photopic pupil size, and scotopic pupil size recovery after the light stimulus concluded.
The pupils of the subject's pretreated right eye and untreated control left eye were then measured under both scotopic and photopic conditions for baseline measurements (FIG. 6A). Photopic conditions consisted of a 4 second window where a light was shining in both eyes simultaneously. […]
The experiment was repeated at a higher dosage wherein the subject was administered a second ophthalmic formulation containing 10% phenylephrine to both eyes. 30 minutes after instillation of 10% phenylephrine, the pupils of the subject were then measured under both scotopic and photopic conditions (FIG. 6C). […] Because the area of a circle is dependent on the radius squared (area of a circle=πr^2), the increase in area that is created from a increasing the pupil dilation size is not linear.
The results were then compared.

[1] = right eye pre-treated 3 times a day for 4 days, then phenylephrine 2.5% both eyes (FIG. 6B)
[2] = right eye pre-treated 3 times a day for 4 days, then phenylephrine 10% both eyes

`Brc1c(NC2=NCCN2)ccc2nccnc12` [Brimonidine, brimonidine] was tested, and the “DELTA RPupil Ave” value [1] was 4.70 mm, the “DELTA RStim Ave” value [1] was 4.98 mm and the “DV LStim Ave” value [1] was 1.36 mm/s. The “DV RPupil Ave” value [1] was 1.39 mm/s, the “DV RStim Ave” value [1] was 1.36 mm/s and the “DV Right” value [1] was 1.39 mm/s. For the same compound, the “MCV LStim Ave” value [1] was 6.06 mm/s, the “MCV RPupil Ave” value [1] was 5.40 mm/s and the “MCV RStim Ave” value [1] was 6.06 mm/s. The “Max LStim Ave” value [1] was 7.73 mm, the “Max RStim Ave” value [1] was 7.73 mm and the “Max Right” value [1] was 7.69 mm. The “Min LStim Ave” value [1] was 2.75 mm, the “Min RPupil Ave” value [1] was 2.99 mm and the “Min RStim Ave” value [1] was 2.75 mm. For the same compound, the “Min Right” value [1] was 2.99 mm, the “CH LPupil Ave” value [1] was 68% and the “CH Left” value [1] was 68%. The “CLAT LPupil Ave” value [1] was 0.19 s, the “CLAT Left” value [1] was 0.19 s and the “DELTA Left” value [1] was 5.26 mm. For the same compound, the “DV Left” value [1] was 1.33 mm/s, the “MCV Left” value [1] was 6.71 mm/s and the “Max Left” value [1] was 7.77 mm. For the same compound, the “Min Left” value [1] was 2.51 mm, the “CH LStim Ave” value [2] was 52% and the “CH RPupil Ave” value [2] was 46%. The “CH RStim Ave” value [2] was 52%, the “CH Right” value [2] was 46% and the “CLAT LStim Ave” value [2] was 0.22 s. The “CLAT RPupil Ave” value [2] was 0.20 s, the “CLAT RStim Ave” value [2] was 0.22 s and the “CLAT Right” value [2] was 0.20 s. The “DELTA LStim Ave” value [2] was 4.74 mm, the “DELTA RPupil Ave” value [2] was 4.28 mm and the “DELTA RStim Ave” value [2] was 4.74 mm. For the same compound, the “DV LStim Ave” value [2] was 1.06 mm/s, the “DV RPupil Ave” value [2] was 1.09 mm/s and the “DV RStim Ave” value [2] was 1.06 mm/s. The “DV Right” value [2] was 1.09 mm/s, the “MCV LStim Ave” value [2] was 4.22 mm/s and the “MCV RPupil Ave” value [2] was 4.20 mm/s. For the same compound, the “MCV RStim Ave” value [2] was 4.22 mm/s, the “Max LStim Ave” value [2] was 9.18 mm and the “Max RStim Ave” value [2] was 9.18 mm. The “Max Right” value [2] was 9.40 mm, the “Min LStim Ave” value [2] was 4.44 mm and the “Min RPupil Ave” value [2] was 5.12 mm. The “Min RStim Ave” value [2] was 4.44 mm, the “Min Right” value [2] was 5.12 mm and the “CH LPupil Ave” value [2] was 58%. The “CH Left” value [2] was 58%, the “CLAT LPupil Ave” value [2] was 0.24 s and the “CLAT Left” value [2] was 0.24 s. For the same compound, the “DELTA Left” value [2] was 5.19 mm, the “DV Left” value [2] was 1.04 mm/s and the “MCV Left” value [2] was 4.25 mm/s. For the same compound, the “Max Left” value [2] was 8.96 mm, the “Min Left” value [2] was 3.77 mm and the “dilation of pretreated eye vs control eye” value (shortened to “dilation … vs control eye”) (scotopic and photopic conditions, after 4 days pre-treatment, before phenylephrine (FIG. 6A)) was “less dilated”. The “dilation … vs control eye” value (scotopic conditions, 30 minutes after 2.5% phenylephrine (FIG. 6B)) was “equally dilated” and the “dilation … vs control eye” value (scotopic conditions, 30 minutes after 10% phenylephrine (FIG. 6C)) was “more dilated”.

From patent publication US11738022B2, “Methods for inducing pupil dilation” (THE REGENTS OF THE UNIVERSITY OF COLORADO, A BODY CORPORATE, priority 2017, dated 2023)
